According to patent US8492310B2, “Herbicidal compositions containing benzoylpyrazole compounds” (priority 2008, dated 2013):
Where two headings read alike, the source gives them in different places.

Columns and labels:
[1] = system: velvetleaf (Abutilon theophrasti MEDIC.); experiment: Foliar treatment pot test, visual growth inhibition rate, velvetleaf (AT); format: in vivo
From the text: (§1) When the herbicidal activity in a case where two active ingredients are combined, is larger than the simple sum of the respective herbicidal activities of the two active ingredients (the expected activity), it is called a synergistic effect. The activity expected by the combination of two active ingredients can be calculated as follows (Colby S. R., “Weed”, vol. 15, p. 20-22, 1967). E=α+β−(α×β÷100) where
(§2) Upland field soil was put into a 1/1,000,000 hectare pot, and seeds of various plants (barnyardgrass (Echinochloa crus-qalli L.), crabgrass (Digitaria sanguinalis L.), giant foxtail (Setaria faberi Herrm.), velvetleaf (Abutilon theophrasti MEDIC.) and prickly sida (Sida spinosa L.)) were sown. When the respective plants reached predetermined leaf stage, herbicidal compositions in predetermined amounts were diluted with water in an amount corresponding to 300 L/ha and applied for foliar treatment by a small sprayer.
(§3) Further, in accordance with the above Colby's formula, the growth inhibition rate (calculated value) was calculated. In Tables, with respect to the compound Q, Compound Nos. in Table 1 are described, and with respect to other herbicidal compounds, common names are described. Further, in Tables, barnyardgrass is represented by “EC”, crabgrass by “DS”, giant foxtail by “SF”, velvetleaf by “AT”, and prickly sida by “SS”.

[2] = system: crabgrass (Digitaria sanguinalis L.); experiment: Foliar treatment pot test, visual growth inhibition rate, crabgrass (DS); format: in vivo
From the text: as §1, §2, §3

[3] = Digitaria sanguinalis, foliar, 552 h, 4.0-5.1 leaf stage, 23 DAT, read-out: Growth inhibition rate (%) of DS Measured value
[4] = Abutilon theophrasti, foliar, 552 h, 3.0-3.5 leaf stage, 23 DAT, read-out: Growth inhibition rate (%) of AT Measured value

With `O=C(O)COc1ccc(Cl)cc1Cl` [2,4-D] the “Growth inhibition rate (%) of AT Measured value” ([1]; 4.2-4.3 leaf stage, 20 DAT, 25 g/ha) was 45%.

Work on `CCc1cccc(CC)c1N(COC)C(=O)CCl` [Alachlor, alachlor] yielded an inhibition at 300 g/ha ([2]; Digitaria sanguinalis, foliar, 504 h, 5.0-5.5 leaf stage, 21 DAT, read-out: Growth inhibition rate (%) of DS Measured value) of 10% and an inhibition at 300 g/ha ([1]; Abutilon theophrasti, foliar, 504 h, 3.8-4.4 leaf stage, 21 DAT, read-out: Growth inhibition rate (%) of AT Measured value) of 0%.

In the case of `CC(C)N1C(=O)c2ccccc2NS1(=O)=O` [Bentazone-sodium, bentazone-sodium], the inhibition at 200 g/ha ([2]; Digitaria sanguinalis, foliar, 528 h, 4.0-5.0 leaf stage, 22 DAT, 200 g/ha, read-out: Growth inhibition rate (%) of DS Measured value) is reported as 0%, the inhibition at 200 g/ha ([2]; Digitaria sanguinalis, foliar, 552 h, 4.0-5.1 leaf stage, 23 DAT, 200 g/ha, read-out: Growth inhibition rate (%) of DS Measured value) is reported as 0% and the inhibition at 100 g/ha ([1]; Abutilon theophrasti, foliar, 528 h, 4.1-4.5 leaf stage, 22 DAT, 100 g/ha, read-out: Growth inhibition rate (%) of AT Measured value) is reported as 0%. For the same compound, the inhibition at 200 g/ha ([1]; Abutilon theophrasti, foliar, 552 h, 3.0-3.5 leaf stage, 23 DAT, 200 g/ha, read-out: Growth inhibition rate (%) of AT Measured value) was 30%.

For `CCOC(=O)C(Cl)Cc1cc(-n2nc(C)n(C(F)F)c2=O)c(F)cc1Cl` (stereo not shown) [Carfentrazone-ethyl, carfentrazone-ethyl], the inhibition at 15 g/ha ([2]; Digitaria sanguinalis, foliar, 336 h, read-out: Growth inhibition rate (%) of DS Measured value, 4.0-5.0 leaf stage, 14 DAT, 15 g/ha) was 5%, the inhibition at 15 g/ha ([2]; Digitaria sanguinalis, foliar, 384 h, read-out: Growth inhibition rate (%) of DS Measured value, 4.0-5.0 leaf stage, 16 DAT, 15 g/ha) was 0% and the inhibition at 15 g/ha ([1]; Abutilon theophrasti, foliar, 336 h, read-out: Growth inhibition rate (%) of AT Measured value, 3.0-4.0 leaf stage, 14 DAT, 15 g/ha) was 98%. It also gave an inhibition at 7 g/ha ([1]; Abutilon theophrasti, foliar, 504 h, read-out: Growth inhibition rate (%) of AT Measured value, 3.0-3.5 leaf stage, 21 DAT, 7 g/ha) of 99%.

With `O=C(O)c1nc(Cl)ccc1Cl` [Clopyralid, clopyralid] the inhibition at 300 g/ha ([2]; Digitaria sanguinalis, foliar, 528 h, 4.0-5.0 leaf stage, 22 DAT, read-out: Growth inhibition rate (%) of DS Measured value) was 0%, the inhibition at 300 g/ha [2, 3] was 0% and the inhibition at 300 g/ha ([1]; Abutilon theophrasti, foliar, 528 h, 4.1-4.5 leaf stage, 22 DAT, read-out: Growth inhibition rate (%) of AT Measured value) was 40%. It also gave an inhibition at 300 g/ha [1, 4] of 35%.

In the case of `CC(C)N(C(=O)COc1nnc(C(F)(F)F)s1)c1ccc(F)cc1` [Flufenacet], the inhibition at 200 g/ha ([2]; Digitaria sanguinalis, foliar, 480 h, 5.0-5.2 leaf stage, 20 DAT, 200 g/ha, read-out: Growth inhibition rate (%) of DS Measured value) is reported as 0%, the inhibition at 300 g/ha [2, 3] is reported as 0% and the inhibition at 300 g/ha [1, 4] is reported as 0%.

In the case of `CP(=O)(O)CCC(N)C(=O)O` (stereo not shown) [Glufosinate-ammonium, glufosinate-ammonium], the inhibition at 100 g/ha ([2]; Digitaria sanguinalis, foliar, 528 h, read-out: Growth inhibition rate (%) of DS Measured value, 4.0-5.0 leaf stage, 22 DAT, 100 g/ha) is reported as 0%, the inhibition at 200 g/ha ([1]; Abutilon theophrasti, foliar, 528 h, read-out: Growth inhibition rate (%) of AT Measured value, 4.1-4.5 leaf stage, 22 DAT, 200 g/ha) is reported as 10% and the inhibition at 200 g/ha ([1]; Abutilon theophrasti, foliar, 576 h, read-out: Growth inhibition rate (%) of AT Measured value, 3.2-4.1 leaf stage, 24 DAT, 200 g/ha) is reported as 30%.

`N.O=C(O)CNCP(=O)(O)O` [Glyphosate-ammonium, glyphosate-ammonium] was tested, and the “Growth inhibition rate (%) of DS Measured value” ([2]; 5.0-5.5 leaf stage, 21 DAT, 100 g/ha) was 10%, the “Growth inhibition rate (%) of AT Measured value” ([1]; 3.5-4.3 leaf stage, 14 DAT, 100 g/ha) was 30% and the “Growth inhibition rate (%) of AT Measured value” ([1]; 3.5-4.3 leaf stage, 21 DAT, 200 g/ha) was 15%.

In the case of `O=C(O)CNCP(=O)([O-])O.[K+]` [Glyphosate-potassium], the “Growth inhibition rate (%) of DS Measured value” ([2]; 4.0-4.2 leaf stage, 20 DAT, 62.5 g/ha) is reported as 0%, the “Growth inhibition rate (%) of DS Measured value” ([2]; 4.0-4.2 leaf stage, 20 DAT, 125 g/ha) is reported as 5% and the “Growth inhibition rate (%) of DS Measured value” ([2]; 4.0-4.2 leaf stage, 20 DAT, 250 g/ha) is reported as 20%.

Compound `COC(=O)c1c(Cl)nn(C)c1S(=O)(=O)NC(=O)Nc1nc(OC)cc(OC)n1` [Halosulfuron-methyl] has an inhibition at 20 g/ha ([2]; Digitaria sanguinalis, foliar, 336 h, read-out: Growth inhibition rate (%) of DS Measured value, 5.0-5.5 leaf stage, 14 DAT, 20 g/ha) of 0%.

`CON(C)C(=O)Nc1ccc(Cl)c(Cl)c1` [Linuron, linuron] gave an inhibition at 250 g/ha ([2]; Digitaria sanguinalis, foliar, 336 h, 5.0-5.5 leaf stage, 14 DAT, 250 g/ha, read-out: Growth inhibition rate (%) of DS Measured value) of 30%, an inhibition at 250 g/ha ([1]; Abutilon theophrasti, foliar, 336 h, 3.5-4.3 leaf stage, 14 DAT, read-out: Growth inhibition rate (%) of AT Measured value) of 85% and an inhibition at 250 g/ha ([1]; Abutilon theophrasti, foliar, 576 h, 3.2-4.1 leaf stage, 24 DAT, read-out: Growth inhibition rate (%) of AT Measured value) of 40%.

`CCOC(=O)OC(C)Oc1c(C(=O)c2ccc(S(C)(=O)=O)c(OCCOC)c2C)cnn1C` (stereo not shown) [NO. 2] was tested, and the “Growth inhibition rate (%) of AT Measured value” ([1]; 4.0-4.3 leaf stage, 22 DAT, 3.75 g/ha) was 0%.

`CCC(CC)Nc1c([N+](=O)[O-])cc(C)c(C)c1[N+](=O)[O-]` [Pendimethalin, pendimethalin] showed an inhibition at 62.5 g/ha ([2]; Digitaria sanguinalis, foliar, 480 h, 4.5-5.2 leaf stage, 20 DAT, 62.5 g/ha, read-out: Growth inhibition rate (%) of DS Measured value) of 0%, an inhibition at 125 g/ha ([2]; Digitaria sanguinalis, foliar, 480 h, 4.5-5.2 leaf stage, 20 DAT, 125 g/ha, read-out: Growth inhibition rate (%) of DS Measured value) of 0% and an inhibition at 250 g/ha ([2]; Digitaria sanguinalis, foliar, 480 h, 4.5-5.2 leaf stage, 20 DAT, 250 g/ha, read-out: Growth inhibition rate (%) of DS Measured value) of 0%. It also gave an inhibition at 100 g/ha ([1]; Abutilon theophrasti, foliar, 312 h, 3.3-4.2 leaf stage, 13 DAT, 100 g/ha, read-out: Growth inhibition rate (%) of AT Measured value) of 25%, an inhibition at 125 g/ha ([1]; Abutilon theophrasti, foliar, 480 h, 4.2-4.3 leaf stage, 20 DAT, 125 g/ha, read-out: Growth inhibition rate (%) of AT Measured value) of 20% and an inhibition at 250 g/ha ([1]; Abutilon theophrasti, foliar, 480 h, 4.2-4.3 leaf stage, 20 DAT, read-out: Growth inhibition rate (%) of AT Measured value) of 38%.

With `CCOCCN(C(=O)CCl)C(=C(C)C)c1ccccc1` [Pethoxamid, pethoxamid] the “Growth inhibition rate (%) of DS Measured value” ([2]; 3.6-3.8 leaf stage, 20 DAT, 100 g/ha) was 0%, the “Growth inhibition rate (%) of DS Measured value” ([2]; 3.6-3.8 leaf stage, 20 DAT, 200 g/ha) was 0% and the “Growth inhibition rate (%) of DS Measured value” ([2]; 3.6-3.8 leaf stage, 20 DAT, 400 g/ha) was 0%. The “Growth inhibition rate (%) of DS Measured value” ([2]; 4.4-5.0 leaf stage, 13 DAT, 200 g/ha) was 0% and the “Growth inhibition rate (%) of AT Measured value” ([1]; 3.3-4.2 leaf stage, 13 DAT, 200 g/ha) was 0%.

Work on `CCc1cc(C)cc(CC)c1-c1c(OC(=O)C(C)(C)C)n2n(c1=O)CCOCC2` [Pinoxaden] yielded an inhibition at 25 g/ha ([2]; Digitaria sanguinalis, foliar, 504 h, 4.0-5.1 leaf stage, 21 DAT, 25 g/ha, read-out: Growth inhibition rate (%) of DS Measured value) of 70%, an inhibition at 50 g/ha ([2]; Digitaria sanguinalis, foliar, 504 h, 4.0-5.1 leaf stage, 21 DAT, 50 g/ha, read-out: Growth inhibition rate (%) of DS Measured value) of 90% and an inhibition at 100 g/ha ([2]; Digitaria sanguinalis, foliar, 504 h, 4.0-5.1 leaf stage, 21 DAT, 100 g/ha, read-out: Growth inhibition rate (%) of DS Measured value) of 70%. For the same compound, the inhibition at 25 g/ha ([1]; Abutilon theophrasti, foliar, 504 h, AT 4.0-4.3 leaf stage, 21 DAT, active ingredient 25 g/ha, read-out: Growth inhibition rate (%) of AT Measured value) was 0%, the inhibition at 50 g/ha ([1]; Abutilon theophrasti, foliar, 504 h, AT 4.0-4.3 leaf stage, 21 DAT, active ingredient 50 g/ha, read-out: Growth inhibition rate (%) of AT Measured value) was 0% and the inhibition at 100 g/ha ([1]; Abutilon theophrasti, foliar, 504 h, AT 4.0-4.3 leaf stage, 21 DAT, active ingredient 100 g/ha, read-out: Growth inhibition rate (%) of AT Measured value) was 0%.

`CS(=O)(=O)c1ccc(C(=O)C2C(=O)CCCC2=O)c(Cl)c1` [sulcotrione] was tested, and the inhibition at 25 g/ha ([1]; Abutilon theophrasti, foliar, 480 h, read-out: Growth inhibition rate (%) of AT Measured value, 4.0-4.2 leaf stage, 20 DAT, 25 g/ha) was 40%, the inhibition at 50 g/ha ([1]; Abutilon theophrasti, foliar, 480 h, read-out: Growth inhibition rate (%) of AT Measured value, 4.0-4.2 leaf stage, 20 DAT, 50 g/ha) was 60% and the inhibition at 100 g/ha ([1]; Abutilon theophrasti, foliar, 480 h, read-out: Growth inhibition rate (%) of AT Measured value, 4.0-4.2 leaf stage, 20 DAT, 100 g/ha) was 95%.
